6 molecules from patent US11286228B2, “Stilbene derivative and method for preparing same” (Ozchela Inc., priority 2016, dated 2022) can be followed below.

The structures appear in SMILES notation. Where two headings read alike, the source gives them in different places.

For one series, the target named is cyclophilin. Put plainly: Cis-trans isomerase inhibitory activity (chymotrypsin-coupled Suc-AAPF-pNA cleavage, absorbance 390 nm). It counts as biochemical. Put shortly:
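Cyclophilin isomerase activity coupled to chymotrypsin cleavage of Suc-AAPF-pNA: chymotrypsin cuts only the trans peptide, so isomerase-driven cis-to-trans conversion increases cleavage within a fixed period. Released product read by absorbance at 390 nm with compound present alongside cyclophilin.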

A further series concerns hepatitis C virus. In words: Antiviral activity in HCV replicon cells (Renilla luciferase). The format is cell-based. To be noted: HCV replicon cells. Put shortly:
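Replicon cells stably carrying the HCV genome, pre-cultured 24 h at 37 °C, treated with compound for 72 h, then lysed on ice. Renilla luciferase luminescence used as a measure of HCV genome level, expressed relative to DMSO-treated cells, from which EC50 was derived.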
For orientation: In antiviral work, replicon cells carry a viral genome segment that copies itself.

Series [1] has as its system mitochondria obtained from hepatocytes. In words: Inhibitory activity on calcium-induced mitochondrial swelling (absorbance 520 nm). In short, it runs like this: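 Mitochondria isolated from hepatocytes by Dounce disruption, 700×g clearing and 12,000×g pelleting. Swelling induced with calcium and followed as absorbance at 520 nm; activity expressed as IC50.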
Series [2] is described as follows: Cytotoxicity, MTT test in HCV replicon cells. The format is cell-based. How it is done:
The cytotoxicity of the stilbene derivatives was measured. Replicon cells that stably replicate a hepatitis C virus genome were attached to a 96-well plate and cultured in a CO2 incubator at 37° C. for 24 hr. The replicon cells cultured for one day were washed with a phosphate buffered saline (PBS) solution, treated with the compounds of the present invention, and then cultured for 72 hr. Thereafter, through the MTT [3-(4,5-dimethylthiazol-2-yl)-2,5-diphenyltetrazolium bromide] cytotoxicity test, CC50 values of the compounds of the present invention were measured. The CC50 values of the compounds of the present invention were 200 μM or more.
For orientation: Formazan colour is commonly taken as a measure of viable cells.

Setting [3] is: cyclophilin, chymotrypsin, Suc-AAPF-pNA, read-out: Test Example 1: cis-trans isomerase inhibitory activity (IC50).
Where [4] appears, read: Hepatitis C virus, 72 hr, Renilla luciferase, relative to DMSO, read-out: Test Example 3: antiviral activity (EC50).
Setting [5] is: Hepatocyte, calcium-induced swelling of extracted mitochondria, read-out: Test Example 4: inhibiting mitochondrial swelling (IC50).
[6] abbreviates: read-out: Test Example 1: cis-trans isomerase inhibitory activity (IC50) group.
Where [7] appears, read: Hepatitis C virus, read-out: Test Example 3: antiviral activity (EC50) group.
The mark [8] stands for this setting: Hepatocyte, read-out: Test Example 4: activity on inhibiting mitochondrial swelling (IC50) group.

By IC50 is commonly meant the concentration at which inhibition is half-maximal. As a reminder, the EC50 is the concentration that produces a half-maximal response. In general, CC50 refers to the concentration at which the toxic effect on the cells reaches its halfway point. High values mean better tolerance by the cells, low ones harm at low concentration. On to `CCCCOC(=O)c1ccccc1C=Cc1ccc(CC(C)(C)C)cc1` [Compound 64], for which the half-maximal inhibitory concentration (IC50) is at most 0.02 µM at cyclophilin (setting [3]) and under 5 µM in series [1] (setting [5]). In addition, the concentration for a half-maximal effect (EC50) in the series with hepatitis C virus (setting [4]) was under 0.5 µM. This molecule registered a 50% cytotoxic concentration (CC50) at 72 h in series [2] of 320 µM.

Regarding `CCCCOC(=O)c1c(C)cccc1C=Cc1ccc(CC(C)(C)C)cc1` [Compound 65], the IC50 on cyclophilin (setting [3]) was 0.02 to 0.2 µM; in series [1] (setting [5]), 5 to 50 µM. In addition, the EC50 with hepatitis C virus (setting [4]) lay within 0.5 to 5 µM. The molecule further came in with a cytotoxic concentration (CC50) at 72 h in series [2] of 284 µM.

In the case of `CCCCOC(=O)c1c(C=Cc2ccc(CC(C)(C)C)cc2)cccc1CC` [Compound 66], the IC50 at cyclophilin (setting [3]) was 0.02 to 0.2 µM; in series [1] (setting [5]), 5 to 50 µM. The concentration for a half-maximal effect (EC50) with hepatitis C virus (setting [4]) was in the range of 0.5 to 5 µM. Also, the CC50 at 72 h in series [2] amounted to 245 µM.

In the case of `CC(C)(C)Cc1ccc(C=Cc2cc(O)ccc2C(=O)O)cc1` [Compound 153], the concentration for half-maximal inhibition (IC50) was in the range of 0.02 to 0.2 µM at cyclophilin (setting [6]) and 5 to 50 µM in series [1] (read-out: Test Example 4: activity on inhibiting mitochondrial swelling (IC50) group). For the same molecule, in the series on hepatitis C virus (read-out: Test Example 3: antiviral activity (EC50) group), the EC50 lay within 0.5 to 5 µM.

For the molecule `CC(C)(C)Cc1ccc(C=Cc2cc(N)ccc2C(=O)O)cc1` [Compound 154], the IC50 is 0.02 to 0.2 µM at cyclophilin (setting [6]) and 5 to 50 µM in series [1] (setting [8]). In addition, the EC50 in the series on hepatitis C virus (setting [7]) lay in the range of 0.5 to 5 µM.

On to `Cc1ccc(C(=O)O)c(C=Cc2ccc(CC(C)(C)C)cc2)c1` [Compound 155], for which the values for the IC50 (at cyclophilin (setting [6]); in series [1] (setting [8])) were 0.02 to 0.2 µM and 5 to 50 µM, respectively. Moreover, the EC50 in the series with hepatitis C virus (setting [7]) was 0.5 to 5 µM.
